Where two headings read alike, the source gives them in different places.
Key:
obese male subjects = assay: Multiple ascending dose study in obese males: safety and tolerability; type: in vivo, human; conditions: for GI adverse events, number (percentage) of subjects / General Disorders adverse events, number (percentage) of subjects / Muscle and CT disorders adverse events, number (percentage) of subjects / Nervous System adverse events, number (percentage) of subjects / Skin and SQ disorders adverse events, number (percentage) of subjects: n = 10
From the text: (§1) The primary endpoints of this study included safety and tolerability, pharmacokinetics, and biomarkers. The safety and tolerability included physical examinations, adverse event (AE) reporting, vital signs (blood pressure, heart rate, respiratory rate), clinical laboratory values (hematology, biochemistry, and urinalysis) including serum magnesium and creatine phosphokinase (CPK), 12-lead electrocardiograms (ECGs) for safety assessments and QTcF measured on ECGs extracted from cardiac Holter monitoring. The pharmacokinetic measurements included maximum observed plasma drug concentration (Cmax), time to maximum plasma drug concentration (Tmax), terminal phase half-life (t½), area under the plasma drug concentration versus time curve (AUC0-last, AUC0-∞), clearance (CL/F), volume of distribution (Vd/F) and terminal elimination rate constant (λz).
(§2) This was a single-center, randomized, double-blind, placebo-controlled study of sequential multiple ascending doses of oral CXA-10 in obese male subjects. Eligible subjects included obese males age 19 to 57 years and BMI 27.0 to 39.5 kg/m^2. CXA-10 and placebo were provided as solutions in hard shell capsules. Three (3) cohorts of subjects were dosed once daily with CXA-10 for 14 days. The doses administered in this study were 25, 150 and 450 mg. Subjects enrolled in the highest dose level (450 mg) were administered 600 mg on day 1 then 450 mg for 13 days. This cohort (cohort 3) was given the option to receive an additional 450 mg dose on day 15 with a high fat (50%) breakfast.
Each cohort of subjects was randomized to receive CXA-10 (10 subjects) or placebo (4 or 5 subjects). Safety, pharmacokinetic (PK) and pharmacodynamic (PD) assessments were evaluated throughout the study. The last study visit occurred on Day 28. All subjects remained in the unit during the treatment period and were discharged approximately 24 hours after the last dose was administered. Food restrictions were incorporated to minimize variability in biomarker evaluation and body weight.
(§3) Subjects remained at the unit until discharge on Day 15 after assessments were completed and reviewed. […] They remained in the unit until Day 16 (24 h after last dose on Day 15) before being discharged from the unit. The additional procedures on Day 15 and Day 16 were optional for subjects in cohort 3.
Safety and tolerability was evaluated throughout the study. Continuous Holter monitoring was performed on Days −1 and on Day 14 in all three cohorts. Continuous Holter monitoring could also be performed at highest dose cohort on an additional day between Days 2 and 4. The decision to conduct Holter monitoring and the actual day of the additional monitoring was determined based on emerging data.

[1] = Multiple ascending dose study in obese males: pharmacokinetics; type: in vivo, human; conditions: for plasma concentration Day 21 / plasma concentration Day 28: after 14 days dosing; for Tmax: male, human, plasma, oral, 450 mg, read-out: Median Tmax
From the text: as §1, §2, §3
Full PK profiles were obtained on Days 1 and 14. For subjects in cohort 3 who participate in the additional procedures on Day 15, full PK profiles were obtained on Days 1, 14, and 15. An abbreviated PK profile could also be obtained for the highest dose cohort only on one additional day. The actual day of PK sampling coincided with the additional day of Holter monitoring for the highest dose cohort. Subjects returned on Day 21 and Day 28 for PK, safety, and biomarker assessments.

db/db model = conditions: given by infusion; cited from earlier work
CYP450 3A4 = CYP450 3A4 (Homo sapiens, UniProt P08684); assay: In vitro CYP450 evaluation; type: in vitro ADME
CYP450 3A4, sequence (P08684 whole entry): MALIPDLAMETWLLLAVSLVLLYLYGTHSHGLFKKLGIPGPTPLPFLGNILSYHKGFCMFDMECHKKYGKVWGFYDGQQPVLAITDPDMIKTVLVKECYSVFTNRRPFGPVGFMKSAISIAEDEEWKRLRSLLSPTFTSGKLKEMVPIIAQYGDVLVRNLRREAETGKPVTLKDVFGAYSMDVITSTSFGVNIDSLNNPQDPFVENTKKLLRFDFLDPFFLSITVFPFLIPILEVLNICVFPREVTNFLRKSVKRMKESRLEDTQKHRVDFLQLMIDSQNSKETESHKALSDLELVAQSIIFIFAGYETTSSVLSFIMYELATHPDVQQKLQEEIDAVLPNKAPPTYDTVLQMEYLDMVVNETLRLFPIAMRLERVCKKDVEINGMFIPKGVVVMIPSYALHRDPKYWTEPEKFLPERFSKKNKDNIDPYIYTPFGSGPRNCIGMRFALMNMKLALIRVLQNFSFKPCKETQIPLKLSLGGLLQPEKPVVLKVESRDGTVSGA

[2] = system: deoxycorticosterone acetate (DOCA)/salt-induced model of FSGS; assay: DOCA salt study: serum and urine analyses; type: in vivo, mice (129/sv strain); conditions: DOCA/salt mice; for reduction in albuminuria: 2.5 mg/kg p.o. QD
Protocol: Induction of model: Male mice (129/sv strain) were purchased from Taconic Labs. The animals were uninephrectomized (Unx) at 6 weeks of age by the vendor and shipped one week after surgery. At 2 weeks post Unx, a DOCA or placebo pellet (21-day release pellets, 50 mg/pellet, Innovative Research of America, Sarasota, Fla.) was implanted s.c. All mice were then placed on a semisynthetic diet which contained a moderate fat content and a low phytoestrogen/anti-oxidant level, which approximates a normal human diet (4). A second DOCA or placebo pellet was implanted three weeks later. […] One percent NaCl in tap water was given to each group except the sham control group. Body weight was measured weekly, and doses were readjusted based on the current body weight. Urine and blood samples were collected prior to treatment and at week 2 and 4 of treatment. Mice were terminated at week 4. Data is presented as the mean+SEM for the number of animals listed in each group. Serum and urine analyses: Blood samples were collected from the retro-orbital sinus and samples were separated to serum. Serum and urine creatinine (enzymatic assay), blood urea nitrogen (BUN), and serum cholesterol were measured using a Cobas 400 plus bioanalyzer (Roche Diagnostics, IN). Urine samples were collected for 24 h using metabolic cages. Urine albumin was measured by immunoassay Albuwell M (Exocell Inc., Philadelphia, Pa.). Immuno-ELISA according to manufacturer's instructions was used to measure urine nephrin (Exocell Inc., Philadelphia, Pa.) and MCP-1 (Thermal Scientific, Waltham, Mass.). Kim-1 was measured using the E-90KIM Mouse ELISA Kit (Immunology Consultants Laboratory, Portland, Oreg.). Statistical analyses for serum and urine data was performed using a two-tailed Student's t-test.

[3] = Cohort 1, 25 mg once daily 14 days
[4] = Cohort 2, 150 mg once daily 14 days
[5] = Cohort 3, 450 mg once daily (600 mg on day 1)
[6] = obese males, 25-450 mg once daily
[7] = cohort 3, day 15 with high fat (50%) breakfast versus fasted
[8] = low dose 2.5 mg/kg p.o. QD, 4 weeks
[9] = lower dose 2.5 mg/kg p.o. QD, 4 weeks

## CCCCCCCC/C(=C\CCCCCCCC(=O)O)[N+](=O)[O-] [CXA-10, 10-nitro-9(E)-octadec-9-enoic acid]
Obese male subjects; 450 mg
  HBG, HCT and RBC concentration during treatment compared to placebo treated subjects: slight decrease
Obese male subjects; Cohort 1 (25 mg)
  GI related AEs: subjects with nausea: 1 subject had nausea subjects
Obese male subjects; [3]
  GI adverse events, number (percentage) of subjects: 2 (20%)
  General Disorders adverse events, number (percentage) of subjects: 1 (10%)
  Muscle and CT disorders adverse events, number (percentage) of subjects: 2 (20%)
  Nervous System adverse events, number (percentage) of subjects: 0 (0%)
  Skin and SQ disorders adverse events, number (percentage) of subjects: 2 (20%)
Obese male subjects; Cohort 2 (150 mg)
  GI related AEs: subjects with diarrhea: 5 subjects had diarrhea: 1 subject had diarrhea ~2 hr
Obese male subjects; [4]
  GI adverse events, number (percentage) of subjects: 5 (50%)
  General Disorders adverse events, number (percentage) of subjects: 0 (0%)
  Muscle and CT disorders adverse events, number (percentage) of subjects: 0 (0%)
  Nervous System adverse events, number (percentage) of subjects: 1 (10%)
  Skin and SQ disorders adverse events, number (percentage) of subjects: 0 (0%)
Obese male subjects; Cohort 3 (450 mg w food)
  GI related AEs: subjects with diarrhea: 3 subjects
  GI related AEs: subjects with nausea: 1 subjects
Obese male subjects; Cohort 3 (450 mg)
  GI related AEs: subjects with diarrhea: 9 subjects
  GI related AEs: subjects with nausea: 4 subjects
Obese male subjects; [5]
  GI adverse events, number (percentage) of subjects: 9 (90%)
  General Disorders adverse events, number (percentage) of subjects: 3 (30%)
  Muscle and CT disorders adverse events, number (percentage) of subjects: 2 (20%)
  Nervous System adverse events, number (percentage) of subjects: 4 (40%)
  Skin and SQ disorders adverse events, number (percentage) of subjects: 1 (10%)
Obese male subjects; [6]
  CPK (muscle enzyme) or magnesium serum levels: no abnormalities
  QTc interval (routine ECG after dosing for 15 days; ECG extraction from continuous 24-hour Holter monitoring): no prolongation of QTc interval
  clinical laboratory, vital signs or ECG evaluations: no clinically significant findings
Obese male subjects; obese males, oral once daily
  time to resolution of diarrhea: ≤ 4 h
Obese male subjects; obese males, did not worsen with increasing dose
  intensity of diarrhea (grade): grade 1 or 2
[1]; 25 mg cohort
  plasma concentration Day 21: 0.17 ng/mL
  plasma concentration Day 28: 0 ng/mL
[1]; 150 mg cohort
  plasma concentration Day 21: 0.33 ng/mL
  plasma concentration Day 28: (0.39 ng/mL
[1]; 450 mg cohort
  plasma concentration Day 21: 0.38 ng/mL
  plasma concentration Day 28: 0.30 ng/mL
[1]; 25, 150, 450 mg once daily, day 1 and day 14
  pharmacokinetics profiles (dose proportionality, accumulation): dose proportional concentration-times with minimal accumulation
[1]; [7]
  increase of AUC under fed conditions: about 1.7 fold
  increase of Cmax under fed conditions: about 2 fold
[1]; fasted conditions
  Tmax: 3 h
[1]; fed conditions (high fat breakfast)
  Tmax: 6 h
db/db model
  podocyte number: increase in podocyte number
CYP450 3A4
  IC50: > 33 µM
[2]; week 2 post-dosing
  reduction in albuminuria: 49%
[2]; week 4 post-dosing
  reduction in albuminuria: 34%
[2]; high dose 12.5 mg/kg p.o. QD
  albuminuria: had an effect initially but it was not sustained
[2]; high dose 12.5 mg/kg p.o. QD, 4 weeks
  urinary MCP-1 excretion: had no effect
[2]; [8]
  plasma cholesterol: reduced
  urinary MCP-1 excretion: significantly reduced
[2]; [9]
  albumin excretion: markedly reduced
  urinary nephrin levels: markedly reduced

Reference: patent US10537541B2, “Treatment of focal segmental glomerular sclerosis (FSGS) using therapeutically effective oral doses of 10-nitro-9(E)-octadec-9-enoic acid” (Complexa, Inc., priority 2015, dated 2020)
